Measured values as given in PubChem BioAssay (NCI).
Several values for one entry are separate records, joined by “and”; a condition that tells them apart may be missing. Equal entries are not always repeated.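 Test compounds were applied to cells in 96-well plates for 48 hours at 5 doses. Here, GI50 denotes the concentration required for 50% inhibition of growth. The concentration for full growth arrest is given as TGI.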

Columns and labels:
Assay in all cases: NCI anticancer screen, dose series, 48 h
K-562 leukemia = tested on: K-562 leukemia
SK-MEL-2 melanoma = tested on: SK-MEL-2 melanoma
PC-3 prostate = tested on: PC-3 prostate
SK-MEL-28 melanoma = tested on: SK-MEL-28 melanoma
UACC-257 melanoma = tested on: UACC-257 melanoma
HOP-92 NSCLC = tested on: HOP-92 NSCLC
KM12 colon = tested on: KM12 colon
UO-31 renal = tested on: UO-31 renal
CCRF-CEM leukemia = tested on: CCRF-CEM leukemia
RXF 393 renal = tested on: RXF 393 renal

CN(/N=N/c1nc(OCc2ccccc2)c2[nH]cnc2n1)C(=O)Oc1ccc([N+](=O)[O-])cc1
GI50 (K-562 leukemia): 11.9 µM | TGI (K-562 leukemia): > 50 µM | GI50 (SK-MEL-2 melanoma): 11.9 µM | TGI (SK-MEL-2 melanoma): 28.5 µM | GI50 (PC-3 prostate): 10.8 µM | TGI (PC-3 prostate): 27.1 µM | GI50 (SK-MEL-28 melanoma): 12.4 µM | TGI (SK-MEL-28 melanoma): > 50 µM | GI50 (UACC-257 melanoma): 39 µM | TGI (UACC-257 melanoma): > 50 µM | GI50 (HOP-92 NSCLC): 7.17 µM | TGI (HOP-92 NSCLC): 26.6 µM | GI50 (KM12 colon): 8.49 µM | TGI (KM12 colon): 18.7 µM | GI50 (UO-31 renal): 6.58 µM | TGI (UO-31 renal): 13.9 µM

C=CS(=O)(=O)CCN1CC1
TGI (K-562 leukemia): > 10 µM | TGI (PC-3 prostate): > 10 µM | TGI (SK-MEL-28 melanoma): > 10 µM | TGI (UACC-257 melanoma): > 10 µM | TGI (HOP-92 NSCLC): > 10 µM | TGI (CCRF-CEM leukemia): > 10 µM | TGI (KM12 colon): > 10 µM

O=S(=O)(C/C(=N\O)c1ccccc1)c1ccccc1
TGI (K-562 leukemia): > 100 µM | TGI (RXF 393 renal): > 100 µM | TGI (SK-MEL-2 melanoma): > 100 µM | TGI (SK-MEL-28 melanoma): > 100 µM | TGI (UACC-257 melanoma): > 100 µM | TGI (HOP-92 NSCLC): > 100 µM | TGI (CCRF-CEM leukemia): > 100 µM | TGI (KM12 colon): > 100 µM | TGI (UO-31 renal): > 100 µM

COc1ccc(Nc2c3ccccc3nc3[nH]c4ccccc4c23)cc1
GI50 (K-562 leukemia): 7.17 µM | TGI (K-562 leukemia): > 50 µM | GI50 (RXF 393 renal): > 50 µM | TGI (RXF 393 renal): > 50 µM | GI50 (SK-MEL-2 melanoma): > 50 µM | TGI (SK-MEL-2 melanoma): > 50 µM | GI50 (PC-3 prostate): 7.87 µM | TGI (PC-3 prostate): 28.9 µM | GI50 (SK-MEL-28 melanoma): 18.5 µM | TGI (SK-MEL-28 melanoma): > 50 µM | GI50 (UACC-257 melanoma): 21.2 µM | TGI (UACC-257 melanoma): > 50 µM | GI50 (KM12 colon): > 50 µM | TGI (KM12 colon): > 50 µM | GI50 (UO-31 renal): 38.9 µM | TGI (UO-31 renal): > 50 µM

O=S(=O)(NCCNc1nccc(-c2c(-c3ccc(F)cc3)nc3sccn23)n1)c1ccccc1
GI50 (K-562 leukemia): 4.35 µM | TGI (K-562 leukemia): > 100 µM | GI50 (SK-MEL-2 melanoma): 7.5 µM | TGI (SK-MEL-2 melanoma): 26.6 µM | GI50 (PC-3 prostate): 4 µM | TGI (PC-3 prostate): 78.8 µM | GI50 (SK-MEL-28 melanoma): 9.36 µM | TGI (SK-MEL-28 melanoma): > 100 µM | GI50 (UACC-257 melanoma): 10.6 µM | TGI (UACC-257 melanoma): 72.8 µM | GI50 (HOP-92 NSCLC): 1.34 µM | TGI (HOP-92 NSCLC): 8.14 µM | GI50 (CCRF-CEM leukemia): 3.5 µM | TGI (CCRF-CEM leukemia): > 100 µM | GI50 (KM12 colon): 4.12 µM | TGI (KM12 colon): 68.3 µM | GI50 (UO-31 renal): 1.83 µM | TGI (UO-31 renal): 39.8 µM

CCCCCCC(/C=N/O)C(C)(O)CCC (stereo not drawn)
TGI (K-562 leukemia): > 100 µM | TGI (RXF 393 renal): > 100 µM | TGI (SK-MEL-2 melanoma): > 100 µM | TGI (SK-MEL-28 melanoma): > 100 µM | TGI (UACC-257 melanoma): > 100 µM | TGI (CCRF-CEM leukemia): > 100 µM | TGI (KM12 colon): > 100 µM | TGI (UO-31 renal): > 100 µM

O=C(O)C1=C(C(=O)Nc2ccc(NC(=O)C3=C(C(=O)O)C4C=CC3C4)cc2)C2C=CC1C2
TGI (K-562 leukemia): > 100 µM | TGI (RXF 393 renal): > 100 µM | TGI (SK-MEL-2 melanoma): > 100 µM | TGI (SK-MEL-28 melanoma): > 100 µM | TGI (UACC-257 melanoma): > 100 µM | TGI (HOP-92 NSCLC): > 100 µM | TGI (CCRF-CEM leukemia): > 100 µM | TGI (KM12 colon): > 100 µM | TGI (UO-31 renal): > 100 µM

Nn1c(N=Nc2c(O)[nH]c3c(Cl)cc(Cl)cc23)n[nH]c1=S
TGI (K-562 leukemia): > 100 µM | TGI (RXF 393 renal): > 100 µM | TGI (SK-MEL-2 melanoma): > 100 µM | TGI (UACC-257 melanoma): > 100 µM | TGI (HOP-92 NSCLC): > 100 µM | TGI (CCRF-CEM leukemia): > 100 µM | TGI (KM12 colon): > 100 µM | TGI (UO-31 renal): > 100 µM

O=C1c2nc3n(c2C(=O)c2c1nc1n2CCC1)CCC3
TGI (K-562 leukemia): > 57.8 µM | TGI (RXF 393 renal): 9.59 µM | GI50 (SK-MEL-2 melanoma): 4.39 µM | TGI (SK-MEL-2 melanoma): 13.5 µM | TGI (SK-MEL-28 melanoma): 31.3 µM | GI50 (UACC-257 melanoma): 2.47 µM | TGI (UACC-257 melanoma): 5.6 µM and 5.72 µM | TGI (HOP-92 NSCLC): 26.3 µM | TGI (CCRF-CEM leukemia): 31.4 µM | GI50 (KM12 colon): 5.63 µM | TGI (KM12 colon): 17 µM | TGI (UO-31 renal): 37.4 µM
